Source: patent publication US20130040935A1, “CYCLIC KETO-ENOLS FOR THERAPY” (BAYER INTELLECTUAL PROPERTY GMBH, priority 2010, published 2013)
Read-outs that look alike come from different tables or passages of the source.

What was measured:
[1] = biological target: T1, human ACC1 (acetyl-coenzyme A carboxylase alpha transcript variant 1) (Homo sapiens, UniProt Q13085); assay: Human ACC1 enzyme assay, Assay B1 (ADP-Glo); type: biochemical
T1 construct: FLAG (C); made in house; host or cells: baculovirus-infected insect cells (Hi5)

[2] = biological target: human ACC2 (acetyl-coenzyme A carboxylase 2) (Homo sapiens, UniProt O00763); assay: Human ACC2 enzyme assay, Assay B2 (ADP-Glo);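 further: human ACC2 activity read as ADP product, detected by luciferase glow luminescence after residual ATP removal, enzyme near 2 ng/µl in linear range, detection steps at 22 °C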
[3] = Assay B1, read-out: ACC 1 (=B1) IC50
[4] = Assay B1, ADP-Glo, read-out: ACC 1 (=B1) IC50

human ACC2 (acetyl-coenzyme A carboxylase 2), sequence (O00763 27-2458 limits assumed): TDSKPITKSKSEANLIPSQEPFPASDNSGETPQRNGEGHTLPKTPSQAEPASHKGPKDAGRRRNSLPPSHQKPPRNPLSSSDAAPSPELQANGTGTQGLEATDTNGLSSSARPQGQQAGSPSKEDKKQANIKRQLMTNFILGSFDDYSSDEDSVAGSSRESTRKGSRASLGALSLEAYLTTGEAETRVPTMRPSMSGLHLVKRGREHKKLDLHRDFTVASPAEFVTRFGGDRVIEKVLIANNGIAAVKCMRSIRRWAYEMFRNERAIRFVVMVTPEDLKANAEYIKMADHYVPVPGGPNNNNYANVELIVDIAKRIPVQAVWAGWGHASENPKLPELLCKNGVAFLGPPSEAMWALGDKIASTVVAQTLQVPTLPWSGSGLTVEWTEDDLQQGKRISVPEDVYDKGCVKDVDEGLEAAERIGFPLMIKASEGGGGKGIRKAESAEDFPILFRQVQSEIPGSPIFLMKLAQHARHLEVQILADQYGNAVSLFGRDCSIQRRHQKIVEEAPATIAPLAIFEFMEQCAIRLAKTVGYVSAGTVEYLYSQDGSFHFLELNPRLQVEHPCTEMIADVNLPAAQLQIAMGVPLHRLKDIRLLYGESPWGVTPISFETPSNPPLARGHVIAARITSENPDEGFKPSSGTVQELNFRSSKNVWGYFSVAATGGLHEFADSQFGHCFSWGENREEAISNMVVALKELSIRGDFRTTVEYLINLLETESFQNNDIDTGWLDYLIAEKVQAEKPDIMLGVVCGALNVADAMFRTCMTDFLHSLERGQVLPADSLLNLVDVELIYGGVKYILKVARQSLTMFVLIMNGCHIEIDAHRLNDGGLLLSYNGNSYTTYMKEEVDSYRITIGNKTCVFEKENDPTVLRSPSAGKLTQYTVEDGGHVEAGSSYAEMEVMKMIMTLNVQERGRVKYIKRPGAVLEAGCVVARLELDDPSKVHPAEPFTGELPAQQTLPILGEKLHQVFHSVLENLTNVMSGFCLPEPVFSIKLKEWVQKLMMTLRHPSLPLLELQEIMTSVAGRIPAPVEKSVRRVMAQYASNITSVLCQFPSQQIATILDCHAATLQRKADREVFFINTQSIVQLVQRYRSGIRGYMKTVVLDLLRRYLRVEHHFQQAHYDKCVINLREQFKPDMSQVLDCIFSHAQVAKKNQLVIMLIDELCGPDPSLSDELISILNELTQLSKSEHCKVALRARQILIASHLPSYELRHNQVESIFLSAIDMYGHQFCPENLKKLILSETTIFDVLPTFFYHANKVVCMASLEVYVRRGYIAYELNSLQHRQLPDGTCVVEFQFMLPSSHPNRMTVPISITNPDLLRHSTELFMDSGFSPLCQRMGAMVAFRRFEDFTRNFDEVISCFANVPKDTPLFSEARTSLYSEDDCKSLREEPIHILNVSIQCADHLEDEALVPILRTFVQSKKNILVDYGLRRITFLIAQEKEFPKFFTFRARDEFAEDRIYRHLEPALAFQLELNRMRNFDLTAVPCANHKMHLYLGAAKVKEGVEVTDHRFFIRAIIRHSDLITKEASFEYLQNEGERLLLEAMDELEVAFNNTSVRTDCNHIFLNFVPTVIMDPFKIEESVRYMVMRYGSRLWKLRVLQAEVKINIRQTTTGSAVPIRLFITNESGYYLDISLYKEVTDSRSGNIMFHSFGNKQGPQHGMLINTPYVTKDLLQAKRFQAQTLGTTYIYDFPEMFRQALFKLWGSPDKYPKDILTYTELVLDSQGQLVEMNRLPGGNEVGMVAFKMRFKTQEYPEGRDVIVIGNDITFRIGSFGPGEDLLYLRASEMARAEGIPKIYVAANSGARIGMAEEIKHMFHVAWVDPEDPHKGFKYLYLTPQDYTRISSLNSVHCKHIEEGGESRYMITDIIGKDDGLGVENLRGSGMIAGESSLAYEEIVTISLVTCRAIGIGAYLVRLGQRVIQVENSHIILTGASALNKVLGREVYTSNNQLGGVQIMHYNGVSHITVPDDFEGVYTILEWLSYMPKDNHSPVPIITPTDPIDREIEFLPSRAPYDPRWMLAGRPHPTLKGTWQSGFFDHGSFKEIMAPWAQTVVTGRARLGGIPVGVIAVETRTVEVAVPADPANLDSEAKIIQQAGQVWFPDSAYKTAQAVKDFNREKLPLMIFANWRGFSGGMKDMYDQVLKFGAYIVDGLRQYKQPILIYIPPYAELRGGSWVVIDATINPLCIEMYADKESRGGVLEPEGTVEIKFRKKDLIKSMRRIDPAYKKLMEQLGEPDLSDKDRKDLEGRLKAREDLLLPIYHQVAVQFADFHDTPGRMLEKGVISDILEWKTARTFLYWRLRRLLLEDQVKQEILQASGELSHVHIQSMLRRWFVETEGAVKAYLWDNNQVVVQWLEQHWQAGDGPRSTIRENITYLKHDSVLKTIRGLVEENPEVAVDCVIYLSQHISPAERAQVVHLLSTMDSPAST

IC50 [1, 3] | IC50 [2] | IC50 [1, 4] | SMILES | IC50 [1]
958 nM | 8120 nM |  | Cc1ccc(-c2ccc(Cl)cc2)cc1C1=C(O)C(C)(C(C)C)NC1=O (centres unmarked) [1-78, 3-(4′-chloro-4-methylbiphenyl-3-yl)-4-hydroxy-5-methyl-5-(propan-2-yl)-1,5-dihydro-2H-pyrrol-2-one] | 
 | 3000 nM | 206 nM | Cc1ccc(-c2ccc(Cl)cc2)cc1C1=C(O)C2(CCC3(CCCO3)CC2)OC1=O (centres unmarked) [2-29, 3-(4′-chloro-4-methylbiphenyl-3-yl)-4-hydroxy-1,9-dioxadispiro[4.2.4.2]tetradec-3-en-2-one] | 
218 nM | 4630 nM |  | Cc1ccc(-c2ccc(Cl)cc2)cc1C1=C(O)C2(CCCC2)CC1=O [6-4, 3-(4′-chloro-4-methylbiphenyl-3-yl)-4-hydroxyspiro[4.4]non-3-en-2-one] | 
 | 13600 nM | 812 nM | COCCC1CCCC2(C1)OC(=O)C(c1cc(-c3ccc(Cl)cc3)ccc1Cl)=C2O (centres unmarked) [2-19, 3-(4,4′-dichlorobiphenyl-3-yl)-4-hydroxy-7-(2 methoxyethyl)-1-oxaspiro[4.5]dec-3-en-2-one] | 
918 nM | 5200 nM |  | Cc1ccc(-c2ccc(Cl)cc2)cc1C1=C(O)C2(CCC3(CC2)OCC(C)(C)CO3)NC1=O [1-67, 3-(4′-chloro-4-methylbiphenyl-3-yl)-4-hydroxy-11,11-dimethyl-9,13-dioxa-1-azadispiro[4.2.5.2]pentadec-3-en-2-one] | 
650 nM | > 20000 nM |  | Cc1ccc(-c2ccc(Cl)cc2)cc1C1=C(O)C2(CC2)NC1=O [1-84, 6-(4′-chloro-4-methylbiphenyl-3-yl)-7-hydroxy-4-azaspiro[2.4]hept-6-en-5-one] | 
 | 15200 nM | 1140 nM | CCC1CCC2(CC1)OC(=O)C(c1cc(-c3ccc(Cl)cc3)ccc1C)=C2O (centres unmarked) [2-1, 3-(4′-chloro-4-methylbiphenyl-3-yl)-8-ethyl-4-hydroxy-1-oxaspiro[4.5]dec-3-en-2-one] | 
575 nM | 6120 nM |  | Cc1ccc(-c2ccc(Cl)cc2)cc1C1=C(O)C(C)(C2CC2)NC1=O (centres unmarked) [1-86, 3-(4′-chloro-4-methylbiphenyl-3-yl)-5-cyclopropyl-4-hydroxy-5-methyl-1,5-dihydro-2H-pyrrol-2-one] | 
385 nM | 5740 nM |  | Cc1ccc(-c2ccc(Cl)cc2)c(C)c1C1=C(O)C2(CCC3(CC2)OCC(C)O3)NC1=O (centres unmarked) [1-62, 11-(4′-chloro-2,4-dimethylbiphenyl-3-yl)-12-hydroxy-2-methyl-1,4-dioxa-9-azadispiro[4.2.4.2]tetradec-11-en-10-one] | 
924 nM | 3290 nM |  | COCCC1CCCC2(C1)NC(=O)C(c1c(C)ccc(-c3ccc(Cl)cc3)c1C)=C2O (centres unmarked) [1-55, 3-(4′-chloro-2,4-dimethylbiphenyl-3-yl)-4-hydroxy-7-(2-methoxyethyl)-1-azaspiro[4.5]dec-3-en-2-one] | 
 | 5260 nM | 420 nM | Cc1cc(C)c(-c2ccc(Cl)cc2)cc1C1=C(O)C2(CCCOC2)OC1=O (centres unmarked) [2-46, 3-(4′-chloro-4,6-dimethylbiphenyl-3-yl)-4-hydroxy-1,7-dioxaspiro[4.5]dec-3-en-2-one] | 
288 nM | 3780 nM |  | Cc1ccc(-c2ccc(Cl)cc2)cc1C1=C(O)C2(Cc3ccccc3C2)NC1=O [1-25, 4′-(4′-chloro-4-methylbiphenyl-3-yl)-3′-hydroxy-1,3-dihydrospiro[inden-2,2′-pyrrol]-5′(1′H)-one] | 
 | 2610 nM |  | COC1CCC2(CC1)NC(=O)C(c1cc(-c3ccc(Cl)c(Cl)c3)ccc1C)=C2O (centres unmarked) [1-81, 3-(3′,4′-dichloro-4-methylbiphenyl-3-yl)-4-hydroxy-8-methoxy-1-azaspiro[4.5]dec-3-en-2-one] | 
563 nM | > 20000 nM |  | CCOC1CCCC2(C1)NC(=O)C(c1c(C)ccc(-c3ccc(Cl)cc3)c1C)=C2O (centres unmarked) [1-73, 3-(4′-chloro-2,4-dimethylbiphenyl-3-yl)-7-ethoxy-4-hydroxy-1-azaspiro[4.5]dec-3-en-2-one] | 
11800 nM | > 20000 nM |  | CCOCCO[C@@H]1CC[C@@]2(C1)NC(=O)C(c1cc(-c3ccc(Cl)cc3)ccc1C)=C2O (relative stereo) [1-50, rel-(5R,7S)-3-(4′-chloro-4-methylbiphenyl-3-yl)-7-(2-ethoxyethoxy)-4-hydroxy-1-azaspiro[4.4]non-3-en-2-one] | 
251 nM | 9210 nM |  | Cc1ccc(-c2ccc(Cl)cc2)cc1C1=C(O)C2(CCCC2)NC1=O [1-85, 3-(4′-chloro-4-methylbiphenyl-3-yl)-4-hydroxy-1-azaspiro[4.4]non-3-en-2-one] | 
582 nM | 1880 nM |  | CCCC1CCC2(CC1)NC(=O)C(c1cc(-c3ccc(Cl)cc3)ccc1C)=C2O (centres unmarked) [1-83, 3-(4′-chloro-4-methylbiphenyl-3-yl)-4-hydroxy-8-propyl-1-azaspiro[4.5]dec-3-en-2-one] | 
 | 5270 nM | 162 nM | COC1CCC2(CC1)OC(=O)C(c1cc(-c3ccc(Cl)cc3)ccc1C)=C2O (centres unmarked) [2-39, 3-(4′-chloro-4-methylbiphenyl-3-yl)-4-hydroxy-8-methoxy-1-oxaspiro[4.5]dec-3-en-2-one] | 
1140 nM |  |  | O=C1NC2(CCOCC2)C(O)=C1c1cc(-c2ccc(F)cc2)ccc1Cl [1-41, 3-(4-chloro-4′-fluorobiphenyl-3-yl)-4-hydroxy-8-oxa-1-azaspiro[4.5]dec-3-en-2-one] | 
 |  |  | Cc1ccc(-c2ccc(F)cc2)c(C)c1C1C(=O)N2CCCCN2C1=O [8-1, 2-(4′-fluoro-2,4-dimethylbiphenyl-3-yl)tetrahydro-1H-pyrazolo[1,2-a]pyridazine-1,3(2H)-dione] | 3560 nM
 |  | 2090 nM | O=C1OC2(CCCC2)C(O)=C1c1cc(-c2cc(F)c(F)c(F)c2)ccc1Cl [2-24, 3-(4-chloro-3′,4′,5′-trifluorobiphenyl-3-yl)-4-hydroxy-1-oxaspiro[4.4]non-3-en-2-one] | 
 |  |  | Cc1ccc(-c2ccc(Cl)cc2)cc1C1=C(O)C(C)(C2CCCCC2)OC1=O (centres unmarked) [2-40, 3-(4′-chloro-4-methylbiphenyl-3-yl)-5-cyclohexyl-4-hydroxy-5-methylfuran-2(5H)-one] | 1510 nM
 |  |  | Cc1ccc(-c2ccc(C)c(C3=C(O)C4(CCCOC4)NC3=O)c2)cc1 (centres unmarked) [1-14, 3-(4,4′-dimethylbiphenyl-3-yl)-4-hydroxy-7-oxa-1-azaspiro[4.5]dec-3-en-2-one] | 3070 nM
 |  | 2710 nM | COC1CCC2(CC1)OC(=O)C(c1cc(-c3ccccc3Cl)ccc1C)=C2O (centres unmarked) [2-7, 3-(2′-chloro-4-methylbiphenyl-3-yl)-4-hydroxy-8-methoxy-1-oxaspiro[4.5]dec-3-en-2-one] | 

SMILES | IC50 [1, 3] | IC50 [2] | IC50 [1, 4] | IC50 [1]
O=C1NC2(CCC3(CC2)OCCO3)C(O)=C1c1cc(-c2ccc(Cl)cc2)ccc1Cl [1-61, 11-(4,4′-dichlorobiphenyl-3-yl)-12-hydroxy-1,4-dioxa-9-azadispiro[4.2.4.2]tetradec-11-en-10-one] |  | 9040 nM |  | 88 nM
Cc1ccc(-c2ccc(F)cc2)c(C)c1C1=C(O)C2(CCC(OCC(F)(F)F)CC2)NC1=O (centres unmarked) [1-31, 3-(4′-fluoro-2,4-dimethylbiphenyl-3-yl)-4-hydroxy-8-(2,2,2-trifluoroethoxy)-1-azaspiro[4.5]dec-3-en-2-one] |  | 7890 nM |  | 811 nM
COCC1(C)NC(=O)C(c2cc(-c3ccc(Cl)cc3)ccc2C)=C1O (centres unmarked) [1-46, 3-(4′-chloro-4-methylbiphenyl-3-yl)-4-hydroxy-5-(methoxymethyl)-5-methyl-1,5-dihydro-2H-pyrrol-2-one] |  | > 20000 nM |  | 1130 nM
COCC1CCC2(CC1)OC(=O)C(c1cc(-c3ccc(Cl)cc3)ccc1Cl)=C2O (centres unmarked) [2-16, 3-(4,4′-dichlorobiphenyl-3-yl)-4-hydroxy-8-(methoxymethyl)-1-oxaspiro[4.5]dec-3-en-2-one] |  | 5310 nM |  | 138 nM
Cc1ccc(-c2ccc(Cl)cc2)cc1C1=C(O)C2(CCCC(C)C2)NC1=O (centres unmarked) [1-82, 3-(4′-chloro-4-methylbiphenyl-3-yl)-4-hydroxy-7-methyl-1-azaspiro[4.5]dec-3-en-2-one] | 539 nM | 1320 nM |  | 
Cc1ccc(-c2ccc(Cl)cc2)cc1C1=C(O)C2(CCC3(CC2)OCCO3)NC1=O [1-60, 11-(4′-chloro-4-methylbiphenyl-3-yl)-12-hydroxy-1,4-dioxa-9-azadispiro[4.2.4.2]tetradec-11-en-10-one] |  | 5990 nM |  | 189 nM
CC[C@]1(OC)CC[C@@]2(CC1)NC(=O)C(c1c(C)ccc(-c3ccc(F)cc3)c1C)=C2O [1-89, (5r,8r)-8-ethyl-3-(4′-fluoro-2,4-dimethylbiphenyl-3-yl)-4-hydroxy-8-methoxy-1-azaspiro[4.5]dec-3-en-2-one] |  | 13600 nM |  | 2070 nM
CC1COC2(CCC3(CC2)NC(=O)C(c2cc(-c4ccc(Cl)cc4)ccc2Cl)=C3O)O1 (centres unmarked) [1-68, 11-(4,4′-dichlorobiphenyl-3-yl)-12-hydroxy-2-methyl-1,4-dioxa-9-azadispiro[4.2.4.2]tetradec-11-en-10-one] |  | 5900 nM |  | 547 nM
Cc1ccc(-c2ccc(Cl)cc2)cc1C1=C(O)C2(CCC3(CC2)OC(C)C(C)O3)NC1=O (centres unmarked) [1-64, 11-(4′-chloro-4-methylbiphenyl-3-yl)-12-hydroxy-2,3-dimethyl-1,4-dioxa-9-azadispiro[4.2.4.2]tetradec-11-en-10-one] |  | > 20000 nM |  | 571 nM
Cc1cc(C)c(-c2ccc(Cl)cc2)c(C)c1C1=C(O)C(C)(C)OC1=O [2-5, 3-(4′-chloro-2,4,6-trimethylbiphenyl-3-yl)-4-hydroxy-5,5-dimethylfuran-2(5H)-one] |  | 7340 nM |  | 1260 nM
CCCC1CCC2(CC1)OC(=O)C(c1cc(-c3ccc(Cl)cc3)ccc1C)=C2O (centres unmarked) [2-36, 3-(4′-chloro-4-methylbiphenyl-3-yl)-4-hydroxy-8-propyl-1-oxaspiro[4.5]dec-3-en-2-one] |  | 2410 nM |  | 447 nM
Cc1ccc(-c2ccc(Cl)cc2)cc1C1=C(O)C2(CCC3(CC2)OCC(C)CO3)NC1=O (centres unmarked) [1-66, 3-(4′-chloro-4-methylbiphenyl-3-yl)-4-hydroxy-11-methyl-9,13-dioxa-1-azadispiro[4.2.5.2]pentadec-3-en-2-one] |  | 3130 nM |  | 493 nM
